Target: T1, human A2B receptor (Homo sapiens, UniProt P29275)
T1 construct: host or cells: HEK293 cells stably expressing the receptor; membranes prepared from them
T1 sequence (P29275 1-332): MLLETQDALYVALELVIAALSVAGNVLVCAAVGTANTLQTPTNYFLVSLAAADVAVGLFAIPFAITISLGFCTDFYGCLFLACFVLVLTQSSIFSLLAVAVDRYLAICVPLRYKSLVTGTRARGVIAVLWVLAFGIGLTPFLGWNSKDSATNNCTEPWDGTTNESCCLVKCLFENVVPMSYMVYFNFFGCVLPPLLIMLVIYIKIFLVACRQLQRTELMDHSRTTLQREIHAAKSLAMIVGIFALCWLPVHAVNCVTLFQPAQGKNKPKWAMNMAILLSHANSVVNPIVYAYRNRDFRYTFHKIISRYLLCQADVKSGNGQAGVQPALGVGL
Assay: Adenosine 2B receptor subtype competition radioligand binding assay
Conditions: [3H]-DPCPX competition, membranes from HEK293 cells expressing human A2B receptor
Procedure: A2B membranes were prepared from HEK293 cells stably expressing the human A2B receptor that were purchased from Euroscreen (ES-013-C). […] At the end of the incubation, samples were transferred to a GF/C filter plates (Milipore MAFCN0B50) pretreated for 15 min. with 250 μl of Tris-HCl 50 mM pH 6.5 (Buffer B). Samples were then filtered 4 times with 250 μl of buffer B. Samples were counted using 30 μl of Hisafe II (Perkin Elmer) in a Trilux counter.

Ki [nM]	Compound
9	COc1nc(-c2ccncc2)c(-c2ccco2)nc1N [Example 67, 6-(2-Furyl)-3-methoxy-5-pyridin-4-ylpyrazin-2-amine]
3	COc1ccc(-c2nc(NC(=O)C3CC3)cnc2-c2ccncc2F)cn1 [Example 119, N-[5-(3-Fluoropyridin-4-yl)-6-(6-methoxypyridin-3-yl)pyrazin-2-yl]cyclopropane carboxamide]
4	Nc1cnc(-c2ccncc2F)c(-c2cccc(F)c2)n1 [Example 3, 6-(3-Fluorophenyl)-5-(3-fluoropyridin-4-yl)pyrazin-2-amine]
0.9	Fc1cnccc1-c1nc2cc(-c3cccnc3)[nH]c2nc1-c1cccnc1 [Example 149, 2-(3-Fluoropyridin-4-yl)-3,6-dipyridin-3-yl-5H-pyrrolo[2,3-b]pyrazine]
16	O=C(Nc1cnc(-c2ccncc2Cl)c(-c2ccccn2)n1)C1CC1 [Example 22, N-[5-(3-Chloropyridin-4-yl)-6-pyridin-2-ylpyrazin-2-yl]cyclopropanecarboxamide]
4	O=c1[nH]c2nc(-c3ccncc3)c(-c3cccc(F)c3)nc2[nH]1 [Example 76, 5-(3-Fluorophenyl)-6-pyridin-4-yl-1,3-dihydro-2H-imidazo[4,5-b]pyrazin-2-one]

— patent publication US20100273757A1, “PYRAZINE DERIVATIVES USEFUL AS ADENOSINE RECEPTOR ANTAGONISTS” (Laboratorios Almirall, S.A., priority 2005, published 2010)
